The target of test [1] is T1, PEP carboxylase of Corynebacterium glutamicum strain ATCC 13032 (wild-type) (Corynebacterium glutamicum, UniProt P12880).
T1 construct: endogenous in cells; host or cells: Corynebacterium glutamicum ATCC 13032, crude extract
Description: PEP carboxylase activity in crude extract, wild-type strain. It counts as biochemical. The conditions noted are these: crude extract of ATCC 13032, relative to Complete = 100%, change in absorbance at 340 nm/min. As for the experimental part:
(§1) It is possible for the measurement of the enzyme activity to use a spectrometric method (Yoshinage, T., et al., J. Biochem. 68:747-750 (1970)) and the like. For example, when the enzyme assay is measured in a continuous or kinetic mode while the reaction is occurring, the reaction can be measured spectrophotometrically by following the decrease in the absorbance (usually at 340 nanometers).
(§2) Activity units were measured spectrophotometrically as the change in absorbance (340 nm/min) using crude extracts.

Test [2] concerns PEP carboxylase of Corynebacterium glutamicum strain BF100 (lysine-producing). Description: PEP carboxylase activity in crude extract, lysine-producing strain. It counts as biochemical. The conditions noted are these: relative to Complete = 100%, change in absorbance at 340 nm/min. As for the experimental part:
as §1, §2

The target in test [3] is T2, PEP carboxylase from a strain of Medicago sativa (Medicago sativa, UniProt Q02735).
T2 sequence (Q02735 1-966): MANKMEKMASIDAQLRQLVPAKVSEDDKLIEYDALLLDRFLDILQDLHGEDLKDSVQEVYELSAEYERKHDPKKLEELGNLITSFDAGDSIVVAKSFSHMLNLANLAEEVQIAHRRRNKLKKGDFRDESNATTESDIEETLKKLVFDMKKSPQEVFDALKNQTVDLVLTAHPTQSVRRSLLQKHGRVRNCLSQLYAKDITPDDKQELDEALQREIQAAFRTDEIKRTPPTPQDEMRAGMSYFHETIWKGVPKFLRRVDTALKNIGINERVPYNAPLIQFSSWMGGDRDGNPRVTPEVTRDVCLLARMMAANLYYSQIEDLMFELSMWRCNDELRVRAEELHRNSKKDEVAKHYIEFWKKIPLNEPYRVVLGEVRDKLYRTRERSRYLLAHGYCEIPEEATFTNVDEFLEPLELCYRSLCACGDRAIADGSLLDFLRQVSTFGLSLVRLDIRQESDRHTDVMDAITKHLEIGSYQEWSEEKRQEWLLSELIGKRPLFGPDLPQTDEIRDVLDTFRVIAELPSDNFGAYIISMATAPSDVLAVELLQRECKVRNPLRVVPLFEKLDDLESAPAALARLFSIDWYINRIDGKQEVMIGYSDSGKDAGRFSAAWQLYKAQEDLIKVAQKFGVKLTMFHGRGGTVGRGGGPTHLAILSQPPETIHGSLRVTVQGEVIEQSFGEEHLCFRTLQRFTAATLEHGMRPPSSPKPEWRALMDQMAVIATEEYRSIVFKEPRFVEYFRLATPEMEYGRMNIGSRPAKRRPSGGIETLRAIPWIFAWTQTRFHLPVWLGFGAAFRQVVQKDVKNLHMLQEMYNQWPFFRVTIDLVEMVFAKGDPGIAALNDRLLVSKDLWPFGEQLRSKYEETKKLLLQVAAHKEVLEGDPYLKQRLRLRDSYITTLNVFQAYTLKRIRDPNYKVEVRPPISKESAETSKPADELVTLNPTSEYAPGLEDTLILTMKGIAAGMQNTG
The conditions noted are these: Vance et al., Plant Physiol. 75:261-264 (1984); cited from earlier work.

Molecules are shown by their SMILES.

T1 sequence (P12880 whole entry): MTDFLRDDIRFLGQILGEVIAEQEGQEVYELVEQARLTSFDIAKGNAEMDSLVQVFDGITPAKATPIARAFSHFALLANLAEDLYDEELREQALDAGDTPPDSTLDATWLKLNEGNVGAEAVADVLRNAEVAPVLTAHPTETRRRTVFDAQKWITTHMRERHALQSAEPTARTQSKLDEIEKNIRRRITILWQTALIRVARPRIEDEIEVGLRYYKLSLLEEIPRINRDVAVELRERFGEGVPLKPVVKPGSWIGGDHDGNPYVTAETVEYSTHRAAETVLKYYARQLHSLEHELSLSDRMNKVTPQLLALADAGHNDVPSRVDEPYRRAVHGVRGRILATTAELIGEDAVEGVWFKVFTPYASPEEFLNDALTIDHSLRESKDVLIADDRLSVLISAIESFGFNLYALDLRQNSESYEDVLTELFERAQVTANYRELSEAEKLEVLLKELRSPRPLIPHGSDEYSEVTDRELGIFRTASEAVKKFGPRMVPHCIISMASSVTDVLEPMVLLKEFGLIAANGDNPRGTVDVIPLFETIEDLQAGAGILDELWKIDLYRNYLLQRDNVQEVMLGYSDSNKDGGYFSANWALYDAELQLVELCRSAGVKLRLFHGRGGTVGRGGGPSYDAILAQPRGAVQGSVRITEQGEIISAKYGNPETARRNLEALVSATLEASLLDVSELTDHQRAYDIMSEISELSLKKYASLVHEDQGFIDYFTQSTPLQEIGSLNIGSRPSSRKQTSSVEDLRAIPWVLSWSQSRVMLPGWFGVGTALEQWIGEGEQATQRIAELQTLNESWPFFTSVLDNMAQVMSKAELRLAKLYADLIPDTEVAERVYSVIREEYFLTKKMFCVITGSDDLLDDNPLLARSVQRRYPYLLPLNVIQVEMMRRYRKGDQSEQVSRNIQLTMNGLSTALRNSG

`CC(=O)SCCNC(=O)CCNC(=O)[C@H](O)C(C)(C)COP(=O)(O)OP(=O)(O)OC[C@H]1O[C@@H](n2cnc3c(N)ncnc32)[C@H](O)[C@@H]1OP(=O)(O)O` [Acetyl CoA, acetyl coenzyme A]: the “PEP Carboxylase Activity −Acetyl CoA” value in test [1] (acetyl CoA omitted) is 56%; in test [2] (acetyl CoA omitted), 15%.

Regarding `N[C@@H](CC(=O)O)C(=O)O` [Aspartate, L-aspartic acid], the “inhibition of PEP carboxylase activity” value in test [3] is on record as “not substantially inhibited”. Moreover, the “PEP Carboxylase Activity +Aspartate (5 mM)” value stood at 100% in test [1] (5 mM aspartate) and 17% in test [2] (5 mM aspartate).

Values taken from patent publication US6919190B2, “Regulation of carbon assimilation” (priority 1999, dated 2005).
